ChEMBL document CHEMBL4665648, “Potent and selective inhibitors of receptor-interacting protein kinase 1 that lack an aromatic back pocket group” (Bioorg Med Chem Lett, 2019)
Values after ≈ are worked out from the molar mass of the structure shown.

Experiments:
[1] = biological target: Calcium/calmodulin-dependent protein kinase kinase 2 (Homo sapiens) (UniProt Q96RR4); assay: Inhibition of tracer 236 binding to recombinant human GST-tagged full length CAMKK2 expressed in baculovirus expression system at 10 uM incubated for 60 mins by Lanthascreen assay relative to control
[2] = biological target: Bone morphogenetic protein receptor type-1A (Homo sapiens) (UniProt P36894); assay: Inhibition of tracer 178 binding to recombinant human N-terminal GST-tagged full length BMPR1A expressed in insect expression system at 10 uM incubated for 60 mins by Lanthascreen assay relative to control
Bone morphogenetic protein receptor type-1A (Homo sapiens), sequence (P36894 whole entry, the tested form may be a part): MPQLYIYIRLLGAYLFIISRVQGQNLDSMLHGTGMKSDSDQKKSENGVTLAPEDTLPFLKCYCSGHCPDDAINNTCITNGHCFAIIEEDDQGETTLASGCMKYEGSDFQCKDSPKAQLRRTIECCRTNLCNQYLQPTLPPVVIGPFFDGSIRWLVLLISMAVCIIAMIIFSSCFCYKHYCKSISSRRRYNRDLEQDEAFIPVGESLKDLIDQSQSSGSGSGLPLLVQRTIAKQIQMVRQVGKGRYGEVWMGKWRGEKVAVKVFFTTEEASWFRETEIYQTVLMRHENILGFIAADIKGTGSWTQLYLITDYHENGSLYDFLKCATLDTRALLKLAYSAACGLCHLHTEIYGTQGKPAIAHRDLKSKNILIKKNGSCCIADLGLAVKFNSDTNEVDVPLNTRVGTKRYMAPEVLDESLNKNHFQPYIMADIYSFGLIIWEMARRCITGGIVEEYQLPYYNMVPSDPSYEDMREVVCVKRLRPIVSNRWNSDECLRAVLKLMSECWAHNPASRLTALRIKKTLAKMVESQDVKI

[3] = biological target: Activin receptor type-1B (Homo sapiens) (UniProt P36896); assay: Inhibition of recombinant human GST-tagged ACVR1B (150 to 505 residues) expressed in baculovirus expression system using Ser/Thr 16 as substrate at 10 uM incubated for 60 mins by Z'-Lyte assay relative to control
[4] = Kinetic solubility of compound at pH 7.4; type: physicochemical; details: buffer, read-out: Kinetic_solubility
[5] = biological target: Ephrin type-A receptor 3 (Homo sapiens) (UniProt P29320); assay: Inhibition of tracer 236 binding to recombinant human His-tagged EPHA3 (569 to 976 residues) expressed in baculovirus expression system at 10 uM incubated for 60 mins by Lanthascreen assay relative to control
[6] = biological target: Ephrin type-A receptor 7 (Homo sapiens) (UniProt Q15375); assay: Inhibition of tracer 236 binding to recombinant human GST-tagged EPHA7 (579 to 998 residues) expressed in baculovirus expression system at 10 uM incubated for 60 mins by Lanthascreen assay relative to control
Ephrin type-A receptor 7 (Homo sapiens), sequence (Q15375 whole entry, looked up, the tested form may be a part): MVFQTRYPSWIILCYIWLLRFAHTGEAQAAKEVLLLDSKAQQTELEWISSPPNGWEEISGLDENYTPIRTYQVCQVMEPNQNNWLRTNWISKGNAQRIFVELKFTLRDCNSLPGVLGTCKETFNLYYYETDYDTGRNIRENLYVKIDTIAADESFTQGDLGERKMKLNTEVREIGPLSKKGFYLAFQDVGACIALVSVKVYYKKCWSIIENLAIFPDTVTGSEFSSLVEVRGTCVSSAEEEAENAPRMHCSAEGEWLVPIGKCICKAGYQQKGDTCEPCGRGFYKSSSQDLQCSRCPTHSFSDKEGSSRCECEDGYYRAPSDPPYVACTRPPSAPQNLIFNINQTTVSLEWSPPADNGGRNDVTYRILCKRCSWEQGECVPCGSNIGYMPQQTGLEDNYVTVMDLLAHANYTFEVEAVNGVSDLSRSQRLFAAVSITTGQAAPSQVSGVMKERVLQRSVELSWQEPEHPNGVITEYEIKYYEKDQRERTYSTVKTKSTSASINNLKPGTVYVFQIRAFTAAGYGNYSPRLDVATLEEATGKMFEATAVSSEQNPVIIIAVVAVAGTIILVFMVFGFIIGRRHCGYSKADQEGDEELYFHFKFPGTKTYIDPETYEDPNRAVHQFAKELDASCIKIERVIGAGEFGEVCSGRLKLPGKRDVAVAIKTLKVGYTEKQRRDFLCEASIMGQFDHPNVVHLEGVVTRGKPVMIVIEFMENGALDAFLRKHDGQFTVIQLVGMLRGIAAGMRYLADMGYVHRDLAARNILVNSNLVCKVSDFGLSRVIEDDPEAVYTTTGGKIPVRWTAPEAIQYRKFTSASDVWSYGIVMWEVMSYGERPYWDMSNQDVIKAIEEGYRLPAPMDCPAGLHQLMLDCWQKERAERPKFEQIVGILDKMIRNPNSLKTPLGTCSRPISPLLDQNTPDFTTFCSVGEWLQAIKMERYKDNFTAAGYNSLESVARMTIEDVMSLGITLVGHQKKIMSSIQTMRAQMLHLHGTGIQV

[7] = biological target: Activin receptor type-2B (Homo sapiens) (UniProt Q13705); assay: Inhibition of tracer 178 binding to recombinant human GST-tagged ACVR2B (185 to 488 residues) expressed in baculovirus expression system at 10 uM incubated for 60 mins by Lanthascreen assay relative to control
[8] = biological target: Cyclin-dependent kinase 1/cyclin B1 (Homo sapiens) (UniProt P06493+P14635); assay: Inhibition of recombinant human His-tagged full length CDK1/Cyclin B expressed in baculovirus expression system using Ser/Thr 18 as substrate at 10 uM incubated for 60 mins by Z'-Lyte assay relative to control
[9] = biological target: Casein kinase I isoform alpha (Homo sapiens) (UniProt P48729); assay: Inhibition of recombinant human GST-tagged full length CK1alpha1 expressed in baculovirus expression system using Ser/Thr 11 as substrate at 10 uM incubated for 60 mins by Z'-Lyte assay relative to control
Casein kinase I isoform alpha (Homo sapiens), sequence (P48729 whole entry, looked up, canonical isoform): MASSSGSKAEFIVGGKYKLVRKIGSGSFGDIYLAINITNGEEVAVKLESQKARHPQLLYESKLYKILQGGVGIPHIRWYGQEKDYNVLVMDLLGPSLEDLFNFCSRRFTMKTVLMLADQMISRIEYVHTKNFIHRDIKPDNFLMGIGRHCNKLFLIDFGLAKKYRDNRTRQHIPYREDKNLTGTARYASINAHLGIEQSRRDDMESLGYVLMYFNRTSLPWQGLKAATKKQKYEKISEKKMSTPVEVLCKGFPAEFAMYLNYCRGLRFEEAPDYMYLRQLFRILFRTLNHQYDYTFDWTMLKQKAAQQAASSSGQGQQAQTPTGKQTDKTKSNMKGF

[10] = biological target: Casein kinase I isoform delta (Homo sapiens) (UniProt P48730); assay: Inhibition of recombinant human GST-tagged full length CK1delta expressed in baculovirus expression system using Ser/Thr 11 as substrate at 10 uM incubated for 60 mins by Z'-Lyte assay relative to control
Casein kinase I isoform delta (Homo sapiens), sequence (P48730 whole entry, looked up, canonical isoform): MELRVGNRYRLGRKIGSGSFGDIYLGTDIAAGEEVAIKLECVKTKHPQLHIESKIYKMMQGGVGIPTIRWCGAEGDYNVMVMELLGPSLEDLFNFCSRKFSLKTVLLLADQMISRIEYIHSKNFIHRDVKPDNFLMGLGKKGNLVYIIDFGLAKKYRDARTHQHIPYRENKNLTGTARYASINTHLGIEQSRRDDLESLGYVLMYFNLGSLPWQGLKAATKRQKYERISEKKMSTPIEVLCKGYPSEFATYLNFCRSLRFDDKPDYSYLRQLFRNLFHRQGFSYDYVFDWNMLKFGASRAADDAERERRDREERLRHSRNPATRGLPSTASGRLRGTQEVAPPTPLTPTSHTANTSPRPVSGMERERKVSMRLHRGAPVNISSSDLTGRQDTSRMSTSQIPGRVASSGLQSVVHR

[11] = biological target: Dual specificity protein kinase CLK3 (Homo sapiens) (UniProt P49761); assay: Inhibition of recombinant human GST-tagged full length CLK3 expressed in baculovirus expression system using Ser/Thr 18 as substrate at 10 uM incubated for 60 mins by Z'-Lyte assay relative to control
Dual specificity protein kinase CLK3 (Homo sapiens), sequence (P49761 whole entry, looked up, the tested form may be a part): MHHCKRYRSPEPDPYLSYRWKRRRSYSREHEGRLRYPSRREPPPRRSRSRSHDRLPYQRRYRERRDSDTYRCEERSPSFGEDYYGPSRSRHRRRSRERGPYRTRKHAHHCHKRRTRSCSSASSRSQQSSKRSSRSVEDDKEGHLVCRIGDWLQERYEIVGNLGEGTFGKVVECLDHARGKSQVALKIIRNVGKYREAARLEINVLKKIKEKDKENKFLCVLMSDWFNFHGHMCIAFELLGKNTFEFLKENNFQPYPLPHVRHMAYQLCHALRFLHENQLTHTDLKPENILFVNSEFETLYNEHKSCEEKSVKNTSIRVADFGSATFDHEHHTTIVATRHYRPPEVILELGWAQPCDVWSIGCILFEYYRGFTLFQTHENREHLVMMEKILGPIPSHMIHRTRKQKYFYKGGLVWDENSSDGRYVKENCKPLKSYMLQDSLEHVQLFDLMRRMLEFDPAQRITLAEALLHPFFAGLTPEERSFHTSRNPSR

[12] = biological target: Ephrin type-A receptor 8 (Homo sapiens) (UniProt P29322); assay: Inhibition of recombinant human GST-tagged EPHA8 (565 to 1005 residues) expressed in baculovirus expression system using Tyr 02 as substrate at 10 uM incubated for 60 mins by Z'-Lyte assay relative to control
Ephrin type-A receptor 8 (Homo sapiens), sequence (P29322 whole entry, the tested form may be a part): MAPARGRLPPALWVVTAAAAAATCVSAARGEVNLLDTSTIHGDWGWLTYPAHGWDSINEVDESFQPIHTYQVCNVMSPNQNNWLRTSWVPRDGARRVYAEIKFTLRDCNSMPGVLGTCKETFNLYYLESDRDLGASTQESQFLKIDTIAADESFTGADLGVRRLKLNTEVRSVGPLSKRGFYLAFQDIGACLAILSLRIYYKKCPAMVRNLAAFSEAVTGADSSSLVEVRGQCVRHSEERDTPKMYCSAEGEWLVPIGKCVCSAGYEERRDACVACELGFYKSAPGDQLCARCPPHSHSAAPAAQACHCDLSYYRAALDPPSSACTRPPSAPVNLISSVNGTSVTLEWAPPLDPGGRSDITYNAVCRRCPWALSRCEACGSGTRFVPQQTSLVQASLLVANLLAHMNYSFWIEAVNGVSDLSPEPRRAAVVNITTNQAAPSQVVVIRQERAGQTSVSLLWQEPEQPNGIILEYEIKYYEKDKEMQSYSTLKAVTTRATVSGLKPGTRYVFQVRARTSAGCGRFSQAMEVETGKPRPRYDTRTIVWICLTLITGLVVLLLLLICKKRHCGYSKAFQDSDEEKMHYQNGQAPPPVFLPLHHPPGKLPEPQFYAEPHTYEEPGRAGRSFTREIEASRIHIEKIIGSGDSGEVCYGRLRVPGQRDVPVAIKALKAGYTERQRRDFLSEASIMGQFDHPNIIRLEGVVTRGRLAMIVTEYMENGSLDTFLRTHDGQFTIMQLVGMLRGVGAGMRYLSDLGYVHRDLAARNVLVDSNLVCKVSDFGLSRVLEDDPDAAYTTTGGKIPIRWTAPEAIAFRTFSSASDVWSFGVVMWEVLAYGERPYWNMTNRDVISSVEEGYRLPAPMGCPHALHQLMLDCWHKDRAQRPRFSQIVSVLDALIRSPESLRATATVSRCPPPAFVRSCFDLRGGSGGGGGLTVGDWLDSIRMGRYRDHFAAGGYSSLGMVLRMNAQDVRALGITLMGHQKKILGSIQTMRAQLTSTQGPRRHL

[13] = biological target: Fibroblast growth factor receptor 3 (Homo sapiens) (UniProt P22607); assay: Inhibition of recombinant human His-tagged FGFR3 (399 to 806 residues) expressed in baculovirus expression system using Tyr 04 as substrate at 10 uM incubated for 60 mins by Z'-Lyte assay relative to control
[14] = biological target: Glycogen synthase kinase-3 alpha (Homo sapiens) (UniProt P49840); assay: Inhibition of recombinant human GST-tagged full length GSK3alpha expressed in baculovirus expression system using Ser/Thr 09 as substrate at 10 uM incubated for 60 mins by Z'-Lyte assay relative to control
[15] = biological target: Inhibitor of nuclear factor kappa-B kinase subunit alpha (Homo sapiens) (UniProt O15111); assay: Inhibition of recombinant human His-tagged full length IKKalpha expressed in baculovirus expression system at 10 uM incubated for 60 mins by Adapta assay relative to control
Inhibitor of nuclear factor kappa-B kinase subunit alpha (Homo sapiens), sequence (O15111 whole entry): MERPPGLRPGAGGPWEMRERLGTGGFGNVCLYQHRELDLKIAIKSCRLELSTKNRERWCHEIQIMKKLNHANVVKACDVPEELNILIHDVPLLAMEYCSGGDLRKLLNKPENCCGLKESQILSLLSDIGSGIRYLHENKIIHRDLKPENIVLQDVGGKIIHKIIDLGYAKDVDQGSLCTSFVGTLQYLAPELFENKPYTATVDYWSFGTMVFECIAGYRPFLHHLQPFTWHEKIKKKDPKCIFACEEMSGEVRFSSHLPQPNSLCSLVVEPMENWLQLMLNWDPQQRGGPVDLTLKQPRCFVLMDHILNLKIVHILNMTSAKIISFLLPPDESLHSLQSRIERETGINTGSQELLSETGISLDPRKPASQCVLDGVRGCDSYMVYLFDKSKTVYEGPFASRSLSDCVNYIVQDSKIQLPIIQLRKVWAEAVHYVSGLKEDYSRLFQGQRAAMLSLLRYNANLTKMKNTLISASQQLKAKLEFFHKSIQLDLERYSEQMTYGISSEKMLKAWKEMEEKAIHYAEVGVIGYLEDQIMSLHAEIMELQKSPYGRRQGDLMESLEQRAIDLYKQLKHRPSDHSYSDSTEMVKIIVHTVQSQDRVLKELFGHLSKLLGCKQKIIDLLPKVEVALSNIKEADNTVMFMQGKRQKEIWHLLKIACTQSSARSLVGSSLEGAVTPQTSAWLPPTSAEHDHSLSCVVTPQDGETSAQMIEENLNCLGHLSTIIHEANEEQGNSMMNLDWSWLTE

[16] = biological target: Mitogen-activated protein kinase 8 (Homo sapiens) (UniProt P45983); assay: Inhibition of recombinant human His-tagged full length JNK1alpha1 expressed in baculovirus expression system using Ser/Thr 04 as substrate at 10 uM incubated for 60 mins by Z'-lyte assay relative to control
[17] = biological target: Serine/threonine-protein kinase PAK 4 (Homo sapiens) (UniProt O96013); assay: Inhibition of recombinant human His-tagged PAK4 (295 to 591 residues) expressed in baculovirus expression system using Ser/Thr 20 as substrate at 10 uM incubated for 60 mins by Z'-lyte assay relative to control
[18] = biological target: cGMP-dependent protein kinase 1 (Homo sapiens) (UniProt Q13976); assay: Inhibition of recombinant human GST-tagged full length […] expressed in baculovirus expression system using Ser/Thr 01 as substrate at 10 uM incubated for 60 mins by Z'-lyte assay relative to control
[19] = biological target: MAP kinase-activated protein kinase 5 (Homo sapiens) (UniProt Q8IW41); assay: Inhibition of recombinant human His-tagged full length PRAK expressed in baculovirus expression system using Ser/Thr 04 as substrate at 10 uM incubated for 60 mins by Z'-lyte assay relative to control
MAP kinase-activated protein kinase 5 (Homo sapiens), sequence (Q8IW41 whole entry, the tested form may be a part): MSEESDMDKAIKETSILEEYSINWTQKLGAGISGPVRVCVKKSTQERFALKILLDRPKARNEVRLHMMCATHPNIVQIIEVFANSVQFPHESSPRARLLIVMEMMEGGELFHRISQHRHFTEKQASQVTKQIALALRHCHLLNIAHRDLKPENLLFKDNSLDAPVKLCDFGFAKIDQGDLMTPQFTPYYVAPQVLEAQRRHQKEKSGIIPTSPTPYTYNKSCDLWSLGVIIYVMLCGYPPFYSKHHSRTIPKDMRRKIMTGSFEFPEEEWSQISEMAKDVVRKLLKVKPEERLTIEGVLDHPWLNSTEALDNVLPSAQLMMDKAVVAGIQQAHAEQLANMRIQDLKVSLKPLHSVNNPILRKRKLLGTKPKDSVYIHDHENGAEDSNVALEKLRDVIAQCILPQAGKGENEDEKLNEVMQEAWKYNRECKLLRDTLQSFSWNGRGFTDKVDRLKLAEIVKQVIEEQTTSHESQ

[20] = biological target: Serine/threonine-protein kinase Sgk3 (Homo sapiens) (UniProt Q96BR1); assay: Inhibition of recombinant human GST-tagged full length SGK3 (87 to 496 residues) expressed in baculovirus expression system using Ser/Thr 06 as substrate at 10 uM incubated for 60 mins by Z'-Lyte assay relative to control
[21] = biological target: STE20-like serine/threonine-protein kinase (Homo sapiens) (UniProt Q9H2G2); assay: Inhibition of tracer 236 binding to recombinant human GST-tagged full length SLK expressed in baculovirus expression system at 10 uM incubated for 60 mins by Lanthascreen assay relative to control
[22] = biological target: Serine/threonine-protein kinase 16 (Homo sapiens) (UniProt O75716); assay: Inhibition of tracer 236 binding to recombinant human His-tagged full length STK16 expressed in baculovirus expression system at 10 uM incubated for 60 mins by Lanthascreen assay relative to control
[23] = biological target: Wee1-like protein kinase (Homo sapiens) (UniProt P30291); assay: Inhibition of tracer 178 binding to recombinant human N-terminal GST-tagged full length WEE1 expressed in baculovirus expression system at 10 uM incubated for 60 mins by Lanthascreen assay relative to control
[24] = biological target: Serine/threonine-protein kinase mTOR (Homo sapiens) (UniProt P42345); assay: Inhibition of recombinant human GST-tagged mTOR (1360 to 2549 residues) expressed in Escherichia coli expression system using Ser/Thr 11 as substrate at 10 uM incubated for 60 mins by Z'-Lyte assay relative to control

CN1C(=O)[C@@H](NC(=O)c2n[nH]c3ncc(C(F)(F)C(F)(F)F)cc23)COc2ccccc21
inhibition [1]: 2%
inhibition [2]: 5%
inhibition [3]: -1.5%
solubility kinetic [4]: 17 µM (≈ 7.74 µg/mL)
inhibition [5]: 5.5%
inhibition [6]: 4.5%
inhibition [7]: -0.5%
inhibition [8]: 3%
inhibition [9]: 1.5%
inhibition [10]: 1%
inhibition [11]: 4.5%
inhibition [12]: 0%
inhibition [13]: 0.5%
inhibition [14]: 9%
inhibition [15]: -4%
inhibition [16]: 8.5%
inhibition [17]: 6%
inhibition [18]: 0.5%
inhibition [19]: 5%
inhibition [20]: 0.5%
inhibition [21]: 5%
inhibition [22]: 3%
inhibition [23]: 4%
inhibition [24]: 1.5%
